Tests used:
Type in all cases: in vivo
[1] = tested on: pigweed (Amaranthus retroflexus); test: Test A pre-/postemergence: pigweed
Method in brief: (§1)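 Each species received preemergence soil-directed spraying and, at the same time, postemergence treatment of seedlings 2–10 cm tall. Formulation: non-phytotoxic solvent mixture including surfactant. Response assessed visually about ten days on, relative to untreated controls, 0–100 scale.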

[2] = tested on: wheat (Triticum aestivum); test: Test A pre-/postemergence: wheat
Method in brief: as §1

[3] = tested on: ducksalad (Heteranthera limosa); test: Test C flooded paddy test: ducksalad; settings: scale 0 to 100 (0 no effect, 100 complete control)
Description: (§2) Plant species in the flooded paddy test consisted of rice (Oryza sativa), sedge, umbrella (small-flower umbrella sedge, Cyperus difformis), ducksalad (Heteranthera limosa) and barnyardgrass (Echinochloa crus-galli) grown to the 2-leaf stage for testing. At time of treatment, test pots were flooded to 3 cm above the soil surface, treated by application of test compounds directly to the paddy water, and then maintained at that water depth for the duration of the test.
(§3) Treated plants and controls were maintained in a greenhouse for 13 to 15 days, after which time all species were compared to controls and visually evaluated. Plant response ratings, summarized in Table C, are based on a scale of 0 to 100 where 0 is no effect and 100 is complete control. A dash (-) response means no test result.

[4] = tested on: foxtail, giant (giant foxtail, Setaria faberii); test: Test A pre-/postemergence: foxtail, giant
Description: (§4) Seeds of barnyardgrass (Echinochloa crus-galli), crabgrass, large (large crabgrass, Digitaria sanguinalis), foxtail, giant (giant foxtail, Setaria faberii), morningglory (Ipomoea spp.), pigweed (Amaranthus retroflexus), velvetleaf (Abutilon theophrasti), wheat (Triticum aestivum), and corn (Zea mays) were planted into a blend of loam soil and sand and treated preemergence with a directed soil spray using test chemicals formulated in a non-phytotoxic solvent mixture which included a surfactant. At the same time these species were also treated with postemergence applications of test chemicals formulated in the same manner.
(§5) Plants ranged in height from two to ten cm and were in the one- to two-leaf stage for the postemergence treatment. Treated plants and untreated controls were maintained in a greenhouse for approximately ten days, after which time all treated plants were compared to untreated controls and visually evaluated for injury. Plant response ratings, summarized in Table A, are based on a 0 to 100 scale where 0 is no effect and 100 is complete control. A dash (-) response means no test result.

[5] = tested on: sedge, umbrella (small-flower umbrella sedge, Cyperus difformis); test: Test C flooded paddy test: sedge, umbrella; settings: scale 0 to 100 (0 no effect, 100 complete control)
Description: as §2, §3

[6] = tested on: morningglory (Ipomoea spp.); test: Test A pre-/postemergence: morningglory
Method in brief: as §1

[7] = tested on: barnyardgrass (Echinochloa crus-galli); test: Test A pre-/postemergence: barnyardgrass
Description: as §4, §5

[8] = tested on: corn (Zea mays); test: Test A pre-/postemergence: corn
Method in brief: as §1

[9] = tested on: velvetleaf (Abutilon theophrasti); test: Test A pre-/postemergence: velvetleaf
Method in brief: as §1

[10] = tested on: rice (Oryza sativa); test: Test C flooded paddy test: rice; settings: scale 0 to 100 (0 no effect, 100 complete control)
Description: as §2, §3

[11] = tested on: crabgrass, large (large crabgrass, Digitaria sanguinalis); test: Test A pre-/postemergence: crabgrass, large
Method in brief: as §1

[12] = tested on: barnyardgrass (Echinochloa crus-galli); test: Test C flooded paddy test: barnyardgrass; settings: scale 0 to 100 (0 no effect, 100 complete control)
Description: as §2, §3

[13] = Postemergence, 125 g ai/ha, 0 to 100 scale, 0 is no effect, 100 is complete control
[14] = Postemergence, 500 g ai/ha, visual rating on 0 to 100 scale (0 no effect, 100 complete control), approximately ten days
[15] = Preemergence, 125 g ai/ha, 0 to 100 scale where 0 is no effect and 100 is complete control
[16] = Preemergence, 500 g ai/ha, 0 to 100 scale, 0 is no effect, 100 is complete control
[17] = Flood (flooded paddy test), 125 g ai/ha, visual rating after 13 to 15 days
[18] = Flood (flooded paddy test), 250 g ai/ha, visual rating after 13 to 15 days
[19] = Preemergence, 125 g ai/ha, 0 to 100 scale (0 no effect, 100 complete control)
[20] = Postemergence, 1000 g ai/ha, visual rating on 0 to 100 scale (0 no effect, 100 complete control), approximately ten days
[21] = Preemergence, 1000 g ai/ha, 0 to 100 scale, 0 is no effect, 100 is complete control
[22] = Preemergence, 500 g ai/ha, 0 to 100 scale (0 no effect, 100 complete control)

SMILES: Cc1nn(-c2ccc(F)cc2)nc1Oc1ccnc(C(F)(F)F)n1 [Compound 101]
- Pigweed plant response rating [1, 13]: 80
- Pigweed plant response rating [1, 14]: 90
- Plant response rating, Pigweed [1, 15]: 100
- Plant response rating, Pigweed [1, 16]: 100
- Wheat plant response rating [2, 13]: 0
- Wheat plant response rating [2, 14]: 10
- Plant response rating, Wheat [2, 15]: 0
- Plant response rating, Wheat [2, 16]: 0
- Plant response rating, Ducksalad [3, 17]: 50
- Plant response rating, Ducksalad [3, 18]: 65
- Plant response rating, Ducksalad ([3]; Flood, 31 g ai/ha): 0
- Plant response rating, Ducksalad ([3]; Flood, 62 g ai/ha): 20
- Foxtail, Giant plant response rating [4, 13]: 70
- Foxtail, Giant plant response rating [4, 14]: 90
- Plant response rating, Foxtail, Giant [4, 15]: 100
- Plant response rating, Foxtail, Giant [4, 16]: 100
- Plant response rating, Sedge, Umbrella [5, 17]: 50
- Plant response rating, Sedge, Umbrella [5, 18]: 75
- Plant response rating, Sedge, Umbrella ([5]; Flood, 31 g ai/ha): 0
- Plant response rating, Sedge, Umbrella ([5]; Flood, 62 g ai/ha): 0
- Morningglory plant response rating [6, 13]: 40
- Morningglory plant response rating [6, 14]: 40
- Plant response rating, Morningglory [6, 15]: 0
- Plant response rating, Morningglory [6, 16]: 10
- Barnyardgrass plant response rating [7, 13]: 20
- Barnyardgrass plant response rating [7, 14]: 60
- Plant response rating, Barnyardgrass [7, 19]: 50
- Plant response rating, Barnyardgrass [7, 16]: 80
- Corn plant response rating [8, 13]: 10
- Corn plant response rating [8, 14]: 20
- Plant response rating, Corn [8, 19]: 0
- Plant response rating, Corn [8, 16]: 10
- Velvetleaf plant response rating [9, 13]: 10
- Velvetleaf plant response rating [9, 14]: 20
- Plant response rating, Velvetleaf [9, 15]: 0
- Plant response rating, Velvetleaf [9, 16]: 0
- Plant response rating, Rice [10, 17]: 15
- Plant response rating, Rice [10, 18]: 20
- Plant response rating, Rice ([10]; Flood, 31 g ai/ha): 0
- Plant response rating, Rice ([10]; Flood, 62 g ai/ha): 0
- Crabgrass, Large plant response rating [11, 13]: 70
- Crabgrass, Large plant response rating [11, 14]: 90
- Plant response rating, Crabgrass, Large [11, 19]: 100
- Plant response rating, Crabgrass, Large [11, 16]: 100
- Plant response rating, Barnyardgrass [12, 17]: 55
- Plant response rating, Barnyardgrass [12, 18]: 60
- Plant response rating, Barnyardgrass ([12]; Flood, 31 g ai/ha): 0
- Plant response rating, Barnyardgrass ([12]; Flood, 62 g ai/ha): 0

SMILES: FC(F)(F)c1ccc(-n2nc(Br)c(Cc3cccc(C(F)(F)F)c3)n2)nc1 [Compound 105]
- Pigweed plant response rating [1, 20]: 100
- Pigweed plant response rating [1, 21]: 90
- Wheat plant response rating [2, 20]: 0
- Wheat plant response rating [2, 21]: 0
- Plant response rating, Ducksalad [3, 17]: 0
- Plant response rating, Ducksalad [3, 18]: 0
- Plant response rating, Ducksalad ([3]; Flood, 31 g ai/ha): 0
- Plant response rating, Ducksalad ([3]; Flood, 62 g ai/ha): 0
- Plant response rating, Sedge, Umbrella [5, 17]: 0
- Plant response rating, Sedge, Umbrella [5, 18]: 0
- Plant response rating, Sedge, Umbrella ([5]; Flood, 31 g ai/ha): 0
- Plant response rating, Sedge, Umbrella ([5]; Flood, 62 g ai/ha): 0
- Morningglory plant response rating [6, 20]: 90
- Morningglory plant response rating [6, 21]: 10
- Barnyardgrass plant response rating [7, 20]: 10
- Barnyardgrass plant response rating [7, 21]: 10
- Corn plant response rating [8, 20]: 10
- Corn plant response rating [8, 21]: 0
- Velvetleaf plant response rating [9, 20]: 40
- Velvetleaf plant response rating [9, 21]: 10
- Plant response rating, Rice [10, 17]: 0
- Plant response rating, Rice [10, 18]: 0
- Plant response rating, Rice ([10]; Flood, 31 g ai/ha): 0
- Plant response rating, Rice ([10]; Flood, 62 g ai/ha): 0
- Crabgrass, Large plant response rating [11, 20]: 50
- Crabgrass, Large plant response rating [11, 21]: 50
- Plant response rating, Barnyardgrass [12, 17]: 0
- Plant response rating, Barnyardgrass [12, 18]: 0
- Plant response rating, Barnyardgrass ([12]; Flood, 31 g ai/ha): 0
- Plant response rating, Barnyardgrass ([12]; Flood, 62 g ai/ha): 0

SMILES: CCc1nn(-c2ccc(C(F)(F)F)cc2)nc1Cn1cnc(C(F)(F)F)c1Cl [Compound 121]
- Pigweed plant response rating [1, 13]: 0
- Pigweed plant response rating [1, 14]: 20
- Plant response rating, Pigweed [1, 15]: 0
- Plant response rating, Pigweed [1, 22]: 0
- Wheat plant response rating [2, 13]: 0
- Wheat plant response rating [2, 14]: 0
- Plant response rating, Wheat [2, 15]: 0
- Plant response rating, Wheat [2, 22]: 0
- Foxtail, Giant plant response rating [4, 13]: 0
- Foxtail, Giant plant response rating [4, 14]: 0
- Plant response rating, Foxtail, Giant [4, 15]: 0
- Plant response rating, Foxtail, Giant [4, 22]: 0
- Morningglory plant response rating [6, 13]: 0
- Morningglory plant response rating [6, 14]: 0
- Plant response rating, Morningglory [6, 15]: 0
- Plant response rating, Morningglory [6, 22]: 0
- Barnyardgrass plant response rating [7, 13]: 0
- Barnyardgrass plant response rating [7, 14]: 0
- Plant response rating, Barnyardgrass [7, 15]: 0
- Plant response rating, Barnyardgrass [7, 22]: 0
- Corn plant response rating [8, 13]: 0
- Corn plant response rating [8, 14]: 10
- Plant response rating, Corn [8, 15]: 0
- Plant response rating, Corn [8, 22]: 0
- Velvetleaf plant response rating [9, 13]: 0
- Velvetleaf plant response rating [9, 14]: 10
- Plant response rating, Velvetleaf [9, 15]: 0
- Plant response rating, Velvetleaf [9, 22]: 0
- Crabgrass, Large plant response rating [11, 13]: 0
- Crabgrass, Large plant response rating [11, 14]: 10
- Plant response rating, Crabgrass, Large [11, 15]: 0
- Plant response rating, Crabgrass, Large [11, 22]: 10

SMILES: Cc1nn(-c2ccc(F)cc2)nc1Cn1nc(C(F)(F)F)cc1C [Compound 97]
- Pigweed plant response rating [1, 20]: 60
- Pigweed plant response rating [1, 21]: 0
- Wheat plant response rating [2, 20]: 0
- Wheat plant response rating [2, 21]: 0
- Foxtail, Giant plant response rating [4, 20]: 20
- Foxtail, Giant plant response rating [4, 21]: 20
- Morningglory plant response rating [6, 20]: 40
- Morningglory plant response rating [6, 21]: 0
- Barnyardgrass plant response rating [7, 20]: 30
- Barnyardgrass plant response rating [7, 21]: 30
- Corn plant response rating [8, 20]: 10
- Corn plant response rating [8, 21]: 0
- Velvetleaf plant response rating [9, 20]: 50
- Velvetleaf plant response rating [9, 21]: 0
- Crabgrass, Large plant response rating [11, 20]: 60
- Crabgrass, Large plant response rating [11, 21]: 40

— patent publication US9302999B2, “Substituted triazoles as herbicides” (E. I. DU PONT DE NEMOURS AND COMPANY, priority 2012, dated 2016)
